Values of other authors, collected in patent publication USH1286H, “Method for treating peripheral atherosclerotic disease employing a cholesterol lowering drug, an ACE inhibitor, or a combination thereof” (E. R. Squibb & Sons, Inc., priority 1990, dated 1994).

Details: hypercholesterolemic patients; Costa et al., Am. J. Hyperten. 1988

Structure (SMILES): C[C@H](CS)C(=O)N1CCC[C@H]1C(=O)O [captopril, 1-[(2S)-3-mercapto-2-methylpropionyl]-L-proline]
- increase of HDL: 27%
- reduction of serum cholesterol: -18%
